Test results as given in patent US8329693B2, “Method for the prevention of thromboembolic disorders” (Orion Corporation, priority 2004, dated 2012).

Experiments:
Format in all cases: in vivo
[1] = test system: Dahl SS rats on high-salt diet; assay: Ex vivo MRI of post-mortem brain, Dahl salt-sensitive rat stroke model
Procedure: (§1) Dahl SS rats were divided into three treatment groups: High-Salt diet+vehicle (n=20), High-Salt diet+Levosimendan 1 mg/kg/day (n=20), and Normal-Salt diet control (n=4). High salt diet contained 7% of NaCl in commercial low salt diet. Feeding with the high-salt diet was started at the age of 6 weeks and continued 7 weeks until the end of the study. Levosimendan was administered via drinking water (2 mg/l of levosimendan in drinking water). The administration was started at the same time as the high-salt diet and continued until the end of the study. The consumption of drinking water and food as well as the body weight and general health of the animals were monitored. MRI was performed once-a-week during the weeks 2-8. FOB and 7-point Neuroscore testing were performed once-a-week during the weeks 1-3 and twice-a-week during weeks the 4-8.
For ex-vivo imaging post-mortem brain was removed from the skull and immersed into 4% formalin for 48 h and thereafter stored in 0.1 M PBS. The brain was embedded in perfluoropolyether and MRI was performed in 9.4 T magnet (Oxford) interfaced to a SMIS-console. The interpretation of hyperintensity and signal void areas follows that presented for in vivo studies. In ex vivo studies only mature lesions with significant oedema and destructed tissue structure can be detected. Initial T2 contrast, which may be detectable in vivo, may not be visible in ex vivo studies. The findings in ex vivo studies support the idea that most of the ischemic lesions were associated with hemorrhage. […] Abbreviations: LS, levosimendan.

[2] = test system: Dahl SS rats on high-salt diet; assay: Functional observational battery (FOB), Dahl salt-sensitive rat stroke model; conditions: weeks 1-8, levosimendan 1 mg/kg/day
Procedure: as §1
(§2) Functional observational battery (FOB) and Neuroscore testing were performed once-a-week during weeks 1-3 and twice-a-week during weeks 4-8.
All rats were observed using standardized procedures. The procedures included observation of rats in the home cage, while moving in open arena and through manipulative tests. The measures included:
(1) Home-Cage Measurements:
Body position, Respiration, Vocalization and Palpebral closure.
(2) Hand-Held Observations: […]

[3] = test system: Dahl SS rats on high-salt diet; assay: Seven-point Neuroscore test, Dahl salt-sensitive rat stroke model; conditions: throughout the study (weeks 1-8); grade 6 = normal
Procedure: as §1, §2
A seven-point neuroscore test was used to assess motor and behavioral deficits (modified from Zausinger et al. Brain Res. 863:94-105, 2000). The neurological test was conducted by an investigator blinded to the treatment status of the rats. The seven-point scale was as follows:
Grade 6: Normal extension of both forelimbs towards the floor when lifted gently by the tail. […]

[4] = test system: Dahl salt-sensitive rats on high salt diet; assay: Effects on mortality in salt sensitive rat model (Experiment 1)
From the text: Effect of levosimendan on early stage mortality of Dahl salt-sensitive rats was studied. Dahl salt-sensitive rats on high salt diet develop hypertension and increased mortality. In the early stages of hypertension the incidence of death is almost entirely due to stroke and sudden death. See Qu, P. et al., Hypertens. Res., 2000; 23:613-623.
6-week-old male Dahl salt-sensitive rats (SS/JrHsd) received the following diet and drug regimens for 7 weeks: 1) Dahl SS controls on high salt diet, 2) Dahl SS rats on high salt diet+high-dose levosimendan (10 mg/l of levosimendan in drinking water), 3) Dahl SS rats on high salt diet+low-dose levosimendan (1 mg/l of levosimendan in drinking water) and 4) Dahl SS controls on low salt diet. High salt diet was produced by adding NaCl to commercial low salt diet.
Only 38% (9/24) of rats on high salt diet survived the 7-week follow up period.

In the case of CC1CC(=O)NN=C1c1ccc(NN=C(C#N)C#N)cc1 (single isomer, unassigned; (-)) [levosimendan, (−)-enantiomer of [[4-(1,4,5,6-tetrahydro-4-methyl-6-oxo-3-pyridazinyl)phenyl]hydrazono]propanedinitrile], the “Incidence of T2 changes, class 0” value ([1]; class 0, levosimendan 1 mg/kg/day) is reported as 80%, the “Incidence of T2 changes, class 1-50” value ([1]; class 1-50, levosimendan 1 mg/kg/day) is reported as 20% and the “Incidence of T2 changes, class 51-100” value ([1]; class 51-100, levosimendan 1 mg/kg/day) is reported as 0%. The “Incidence of T2 changes, class >200” value ([1]; class >200, levosimendan 1 mg/kg/day) was 0%, the “stroke-associated behavioural deficits observed in FOB testing” value [2] was “markedly reduce and postpone” and the “seven-point Neuroscore” value [3] was “scored maximum scores throughout the study”. The “early stage mortality of salt-sensitive rats” value ([4]; 7 weeks, levosimendan in drinking water) was “markedly reduced”, the “rats that died during the 7-week follow up period” value ([4]; high-dose levosimendan, 10 mg/l in drinking water) was “three out of 12” and the “rats that died during the 7-week follow up period” value ([4]; low-dose levosimendan, 1 mg/l in drinking water, n=12) was “None”.
